Results published in ChEMBL document CHEMBL4507303, “Data for DCP probe TP-004” (2021).

Columns and labels:
[1] = biological target: Tyrosine-protein kinase Yes (Homo sapiens) (UniProt P07947); conditions: Compound concentration 1000.0 nM
[2] = biological target: 5-hydroxytryptamine receptor 5A (Homo sapiens) (UniProt P47898); conditions: Compound concentration 10.0 uM
[3] = biological target: Serine/threonine-protein kinase DCLK3 (Homo sapiens) (UniProt Q9C098); conditions: Compound concentration 1000.0 nM
[4] = biological target: Calcium/calmodulin-dependent protein kinase type 1D (Homo sapiens) (UniProt Q8IU85); conditions: Compound concentration 1000.0 nM
[5] = biological target: Cyclin-dependent kinase 14 (Homo sapiens) (UniProt O94921); conditions: Compound concentration 1000.0 nM
[6] = biological target: Non-receptor tyrosine-protein kinase TYK2 (Homo sapiens) (UniProt P29597); conditions: Compound concentration 1000.0 nM
[7] = biological target: Dual specificity mitogen-activated protein kinase kinase 2 (Homo sapiens) (UniProt P36507); conditions: Compound concentration 1000.0 nM
[8] = test system: Receptor-type tyrosine-protein kinase FLT3 (Homo sapiens), P36888 [UNDEFINED MUTATION]; conditions: Compound concentration 1000.0 nM
[9] = test system: Receptor-type tyrosine-protein kinase FLT3 (Homo sapiens), P36888 [UNDEFINED MUTATION]; conditions: Compound concentration 1000.0 nM; remark: listed apart in the source
[10] = test system: Receptor-type tyrosine-protein kinase FLT3 (Homo sapiens), P36888 [D835Y]; conditions: Compound concentration 1000.0 nM
[11] = biological target: NT-3 growth factor receptor (Homo sapiens) (UniProt Q16288); conditions: Compound concentration 1000.0 nM
[12] = biological target: Serine/threonine-protein kinase RIO2 (Homo sapiens) (UniProt Q9BVS4); conditions: Compound concentration 1000.0 nM
[13] = biological target: Receptor tyrosine-protein kinase erbB-3 (Homo sapiens) (UniProt P21860); conditions: Compound concentration 1000.0 nM
[14] = biological target: Serine/threonine-protein kinase D3 (Homo sapiens) (UniProt O94806); conditions: Compound concentration 1000.0 nM
[15] = biological target: MAP/microtubule affinity-regulating kinase 4 (Homo sapiens) (UniProt Q96L34); conditions: Compound concentration 1000.0 nM
[16] = biological target: Dual serine/threonine and tyrosine protein kinase (Homo sapiens) (UniProt Q6XUX3); conditions: Compound concentration 1000.0 nM
[17] = biological target: Casein kinase I isoform delta (Homo sapiens) (UniProt P48730); conditions: Compound concentration 1000.0 nM
[18] = test system: Receptor-type tyrosine-protein kinase FLT3 (Homo sapiens), P36888 [R834Q]; conditions: Compound concentration 1000.0 nM
[19] = biological target: Cyclin-dependent kinase 4 (Homo sapiens) (UniProt P11802); conditions: Compound concentration 1000.0 nM
[20] = biological target: G protein-coupled receptor kinase 4 (Homo sapiens) (UniProt P32298); conditions: Compound concentration 1000.0 nM
[21] = biological target: Inhibitor of nuclear factor kappa-B kinase subunit epsilon (Homo sapiens) (UniProt Q14164); conditions: Compound concentration 1000.0 nM
[22] = biological target: Phosphatidylinositol 4-phosphate 5-kinase type-1 gamma (Homo sapiens) (UniProt O60331); conditions: Compound concentration 1000.0 nM
[23] = biological target: Activated CDC42 kinase 1 (Homo sapiens) (UniProt Q07912); conditions: Compound concentration 1000.0 nM
[24] = biological target: Death-associated protein kinase 2 (Homo sapiens) (UniProt Q9UIK4); conditions: Compound concentration 1000.0 nM
[25] = biological target: Tyrosine-protein kinase ABL1 (Homo sapiens) (UniProt P00519); conditions: Compound concentration 1000.0 nM
[26] = biological target: Mitogen-activated protein kinase kinase kinase kinase 4 (Homo sapiens) (UniProt O95819); conditions: Compound concentration 1000.0 nM
[27] = biological target: Macrophage colony-stimulating factor 1 receptor (Homo sapiens) (UniProt P07333); conditions: Compound concentration 1000.0 nM
[28] = biological target: Serine/threonine-protein kinase BRSK2 (Homo sapiens) (UniProt Q8IWQ3); conditions: Compound concentration 1000.0 nM
[29] = biological target: Mitogen-activated protein kinase kinase kinase 11 (Homo sapiens) (UniProt Q16584); conditions: Compound concentration 1000.0 nM
[30] = biological target: Homeodomain-interacting protein kinase 1 (Homo sapiens) (UniProt Q86Z02); conditions: Compound concentration 1000.0 nM
[31] = biological target: Alpha-2C adrenergic receptor (Homo sapiens) (UniProt P18825); conditions: Compound concentration 10.0 uM
[32] = biological target: Serine/threonine-protein kinase 24 (Homo sapiens) (UniProt Q9Y6E0); conditions: Compound concentration 1000.0 nM
[33] = biological target: Mitogen-activated protein kinase 9 (Homo sapiens) (UniProt P45984); conditions: Compound concentration 1000.0 nM
[34] = test system: Serine/threonine-protein kinase B-raf (Homo sapiens), P15056 [V600E]; conditions: Compound concentration 1000.0 nM
[35] = biological target: BMP-2-inducible protein kinase (Homo sapiens) (UniProt Q9NSY1); conditions: Compound concentration 1000.0 nM
[36] = biological target: Beta-2 adrenergic receptor (Homo sapiens) (UniProt P07550); conditions: Compound concentration 10.0 uM
[37] = biological target: Phosphatidylinositol 3-kinase catalytic subunit type 3 (Homo sapiens) (UniProt Q8NEB9); conditions: Compound concentration 1000.0 nM
[38] = biological target: Serine/threonine-protein kinase SIK2 (Homo sapiens) (UniProt Q9H0K1); conditions: Compound concentration 1000.0 nM
[39] = biological target: Tyrosine-protein kinase Fes/Fps (Homo sapiens) (UniProt P07332); conditions: Compound concentration 1000.0 nM
[40] = biological target: Muscarinic acetylcholine receptor M4 (Homo sapiens) (UniProt P08173); conditions: Compound concentration 10.0 uM
[41] = biological target: SNF-related serine/threonine-protein kinase (Homo sapiens) (UniProt Q9NRH2); conditions: Compound concentration 1000.0 nM
[42] = biological target: Mitogen-activated protein kinase kinase kinase kinase 3 (Homo sapiens) (UniProt Q8IVH8); conditions: Compound concentration 1000.0 nM
[43] = biological target: Phosphorylase b kinase regulatory subunit alpha, liver isoform (Homo sapiens) (UniProt P46019); conditions: Compound concentration 1000.0 nM
[44] = biological target: Mitogen-activated protein kinase kinase kinase 10 (Homo sapiens) (UniProt Q02779); conditions: Compound concentration 1000.0 nM

Chain of Casein kinase I isoform delta (Homo sapiens) (P48730 whole entry, looked up, canonical isoform): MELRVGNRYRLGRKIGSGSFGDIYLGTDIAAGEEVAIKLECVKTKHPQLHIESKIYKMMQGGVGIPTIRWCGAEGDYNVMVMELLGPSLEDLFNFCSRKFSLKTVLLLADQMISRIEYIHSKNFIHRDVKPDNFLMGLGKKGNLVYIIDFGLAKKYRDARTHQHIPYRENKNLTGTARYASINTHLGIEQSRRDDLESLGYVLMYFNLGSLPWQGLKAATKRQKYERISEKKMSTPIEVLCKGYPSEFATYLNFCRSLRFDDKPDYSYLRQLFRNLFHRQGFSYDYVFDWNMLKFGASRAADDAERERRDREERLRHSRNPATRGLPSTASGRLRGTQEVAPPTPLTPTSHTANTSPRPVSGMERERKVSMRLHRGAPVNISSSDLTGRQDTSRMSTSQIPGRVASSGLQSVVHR
Chain of Beta-2 adrenergic receptor (Homo sapiens) (P07550 whole entry, looked up): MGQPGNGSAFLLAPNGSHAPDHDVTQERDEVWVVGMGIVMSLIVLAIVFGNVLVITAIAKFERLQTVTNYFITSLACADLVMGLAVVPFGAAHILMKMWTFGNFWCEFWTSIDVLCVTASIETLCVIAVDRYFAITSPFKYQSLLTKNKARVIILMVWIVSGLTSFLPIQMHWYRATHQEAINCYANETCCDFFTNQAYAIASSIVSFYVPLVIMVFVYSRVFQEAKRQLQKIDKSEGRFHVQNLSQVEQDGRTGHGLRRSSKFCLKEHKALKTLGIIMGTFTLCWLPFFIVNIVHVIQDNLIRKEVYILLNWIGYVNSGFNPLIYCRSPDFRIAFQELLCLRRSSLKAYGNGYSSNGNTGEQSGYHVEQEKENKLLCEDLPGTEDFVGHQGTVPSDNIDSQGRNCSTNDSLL
Chain of Non-receptor tyrosine-protein kinase TYK2 (Homo sapiens) (P29597 whole entry): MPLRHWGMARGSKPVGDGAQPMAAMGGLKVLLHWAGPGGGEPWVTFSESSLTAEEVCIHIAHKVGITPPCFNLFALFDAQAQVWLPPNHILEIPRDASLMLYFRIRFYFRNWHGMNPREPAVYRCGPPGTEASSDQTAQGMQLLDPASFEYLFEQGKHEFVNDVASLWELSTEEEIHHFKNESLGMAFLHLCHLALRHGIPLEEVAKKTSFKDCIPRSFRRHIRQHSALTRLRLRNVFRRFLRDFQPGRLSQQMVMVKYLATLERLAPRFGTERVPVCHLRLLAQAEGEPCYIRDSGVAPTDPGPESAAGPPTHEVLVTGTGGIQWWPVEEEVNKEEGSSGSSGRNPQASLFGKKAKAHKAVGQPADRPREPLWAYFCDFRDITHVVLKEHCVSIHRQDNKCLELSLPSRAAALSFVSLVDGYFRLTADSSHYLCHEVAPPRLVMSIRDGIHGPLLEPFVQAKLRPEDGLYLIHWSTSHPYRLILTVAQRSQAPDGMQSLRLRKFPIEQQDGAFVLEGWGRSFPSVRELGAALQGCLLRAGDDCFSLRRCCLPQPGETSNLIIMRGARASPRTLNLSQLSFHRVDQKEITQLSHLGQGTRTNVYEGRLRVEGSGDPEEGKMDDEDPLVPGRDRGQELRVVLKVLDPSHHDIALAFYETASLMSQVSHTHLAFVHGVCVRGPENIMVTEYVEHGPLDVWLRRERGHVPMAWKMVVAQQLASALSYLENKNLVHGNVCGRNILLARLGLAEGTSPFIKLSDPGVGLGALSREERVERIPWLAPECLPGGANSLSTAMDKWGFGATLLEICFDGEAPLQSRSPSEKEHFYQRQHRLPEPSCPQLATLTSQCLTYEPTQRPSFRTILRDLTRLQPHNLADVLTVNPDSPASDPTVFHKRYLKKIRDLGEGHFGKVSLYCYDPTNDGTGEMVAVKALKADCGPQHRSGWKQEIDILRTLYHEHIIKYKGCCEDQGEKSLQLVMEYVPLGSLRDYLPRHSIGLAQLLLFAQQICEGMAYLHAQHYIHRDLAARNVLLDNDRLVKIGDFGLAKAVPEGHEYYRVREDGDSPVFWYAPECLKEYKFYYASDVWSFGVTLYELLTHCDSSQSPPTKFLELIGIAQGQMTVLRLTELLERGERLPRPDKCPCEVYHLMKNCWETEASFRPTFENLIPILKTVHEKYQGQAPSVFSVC
Chain of Serine/threonine-protein kinase DCLK3 (Homo sapiens) (Q9C098 whole entry): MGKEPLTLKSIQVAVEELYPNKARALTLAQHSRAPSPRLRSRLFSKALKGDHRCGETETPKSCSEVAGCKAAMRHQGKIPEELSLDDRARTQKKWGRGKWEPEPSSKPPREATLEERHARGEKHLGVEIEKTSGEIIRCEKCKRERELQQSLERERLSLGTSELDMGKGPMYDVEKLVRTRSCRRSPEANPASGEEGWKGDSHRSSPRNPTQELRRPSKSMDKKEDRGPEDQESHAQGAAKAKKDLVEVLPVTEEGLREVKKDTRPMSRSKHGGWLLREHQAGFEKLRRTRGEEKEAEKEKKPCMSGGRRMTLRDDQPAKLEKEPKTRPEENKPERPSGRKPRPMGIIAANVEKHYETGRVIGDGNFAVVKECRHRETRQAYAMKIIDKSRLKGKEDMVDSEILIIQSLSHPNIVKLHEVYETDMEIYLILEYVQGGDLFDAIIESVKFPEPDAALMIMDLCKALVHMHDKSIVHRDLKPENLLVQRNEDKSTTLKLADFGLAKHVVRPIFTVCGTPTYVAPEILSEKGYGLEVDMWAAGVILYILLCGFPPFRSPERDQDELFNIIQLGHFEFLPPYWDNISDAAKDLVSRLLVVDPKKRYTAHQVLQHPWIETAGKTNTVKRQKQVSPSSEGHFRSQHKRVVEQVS
Chain of Inhibitor of nuclear factor kappa-B kinase subunit epsilon (Homo sapiens) (Q14164 whole entry): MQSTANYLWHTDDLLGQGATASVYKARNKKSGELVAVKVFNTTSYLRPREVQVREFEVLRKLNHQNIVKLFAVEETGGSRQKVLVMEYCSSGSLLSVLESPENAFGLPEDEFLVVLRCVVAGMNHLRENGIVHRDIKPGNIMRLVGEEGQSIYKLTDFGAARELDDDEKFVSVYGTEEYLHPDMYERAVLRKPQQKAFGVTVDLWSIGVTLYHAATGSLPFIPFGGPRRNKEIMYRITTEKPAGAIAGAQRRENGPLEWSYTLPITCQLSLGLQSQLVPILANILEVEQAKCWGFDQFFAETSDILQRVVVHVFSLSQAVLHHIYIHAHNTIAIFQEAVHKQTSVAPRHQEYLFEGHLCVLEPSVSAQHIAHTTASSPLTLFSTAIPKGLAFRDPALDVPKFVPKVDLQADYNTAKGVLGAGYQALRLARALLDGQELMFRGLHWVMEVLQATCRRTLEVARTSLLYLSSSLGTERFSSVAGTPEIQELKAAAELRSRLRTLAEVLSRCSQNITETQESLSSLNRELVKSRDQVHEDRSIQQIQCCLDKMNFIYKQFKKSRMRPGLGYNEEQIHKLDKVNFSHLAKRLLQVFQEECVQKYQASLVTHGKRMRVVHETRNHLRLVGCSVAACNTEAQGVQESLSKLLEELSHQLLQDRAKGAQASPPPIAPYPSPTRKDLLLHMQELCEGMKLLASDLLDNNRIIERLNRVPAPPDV
Chain of NT-3 growth factor receptor (Homo sapiens) (Q16288 32-839 limits assumed): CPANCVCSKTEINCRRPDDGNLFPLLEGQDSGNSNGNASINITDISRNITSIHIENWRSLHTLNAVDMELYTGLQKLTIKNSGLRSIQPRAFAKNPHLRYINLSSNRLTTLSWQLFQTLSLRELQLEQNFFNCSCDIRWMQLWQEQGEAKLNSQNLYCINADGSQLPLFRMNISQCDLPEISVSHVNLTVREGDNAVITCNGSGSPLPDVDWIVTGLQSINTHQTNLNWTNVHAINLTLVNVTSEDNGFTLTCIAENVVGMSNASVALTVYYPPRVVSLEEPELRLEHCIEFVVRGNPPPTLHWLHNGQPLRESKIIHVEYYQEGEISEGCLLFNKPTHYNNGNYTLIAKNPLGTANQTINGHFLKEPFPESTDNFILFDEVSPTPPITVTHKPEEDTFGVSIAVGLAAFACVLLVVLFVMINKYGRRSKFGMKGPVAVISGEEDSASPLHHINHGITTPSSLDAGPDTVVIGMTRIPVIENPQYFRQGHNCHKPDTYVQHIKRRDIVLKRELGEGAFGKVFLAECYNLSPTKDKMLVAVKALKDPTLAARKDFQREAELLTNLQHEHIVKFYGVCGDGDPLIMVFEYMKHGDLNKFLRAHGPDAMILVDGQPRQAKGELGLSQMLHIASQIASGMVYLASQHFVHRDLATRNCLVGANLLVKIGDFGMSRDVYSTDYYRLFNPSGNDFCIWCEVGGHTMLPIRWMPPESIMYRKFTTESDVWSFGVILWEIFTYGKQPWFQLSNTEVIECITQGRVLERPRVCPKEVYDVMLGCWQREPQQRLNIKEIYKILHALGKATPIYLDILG
Chain of Cyclin-dependent kinase 4 (Homo sapiens) (P11802 whole entry): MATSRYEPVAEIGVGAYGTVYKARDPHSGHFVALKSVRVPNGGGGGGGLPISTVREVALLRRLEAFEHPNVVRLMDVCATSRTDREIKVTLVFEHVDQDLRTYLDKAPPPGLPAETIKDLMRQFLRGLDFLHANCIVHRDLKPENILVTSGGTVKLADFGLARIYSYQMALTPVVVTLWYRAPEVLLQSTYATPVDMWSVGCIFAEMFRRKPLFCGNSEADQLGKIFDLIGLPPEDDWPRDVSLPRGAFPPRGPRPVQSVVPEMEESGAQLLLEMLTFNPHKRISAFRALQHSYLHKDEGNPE
Chain of Death-associated protein kinase 2 (Homo sapiens) (Q9UIK4 whole entry, looked up): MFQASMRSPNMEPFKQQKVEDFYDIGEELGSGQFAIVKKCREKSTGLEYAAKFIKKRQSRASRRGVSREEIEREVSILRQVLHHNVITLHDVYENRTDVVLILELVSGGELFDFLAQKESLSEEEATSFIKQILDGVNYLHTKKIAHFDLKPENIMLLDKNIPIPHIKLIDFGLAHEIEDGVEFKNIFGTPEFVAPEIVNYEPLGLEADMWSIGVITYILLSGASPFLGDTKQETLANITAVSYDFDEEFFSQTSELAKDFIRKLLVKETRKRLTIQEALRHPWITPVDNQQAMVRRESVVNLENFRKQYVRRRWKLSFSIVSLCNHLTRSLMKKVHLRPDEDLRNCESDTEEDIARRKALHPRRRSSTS

Cc1nc(N2CC[C@@H](O)C2)ncc1-c1cc(C(F)(F)F)cc2[nH]ncc12 [TP-004]
inactive: residual activity [1] 90% | inhibition [2] -2.1% | residual activity [3] 96% | residual activity [4] 100% | residual activity [5] 100% | residual activity [6] 70% | residual activity [7] 74% | residual activity [8] 100% | residual activity [9] 54% | residual activity [10] 80% | residual activity [11] 66% | residual activity [12] 100% | residual activity [13] 100% | residual activity [14] 100% | residual activity [15] 80% | residual activity [16] 88% | residual activity [17] 95% | residual activity [18] 73% | residual activity [19] 88% | residual activity [20] 86% | residual activity [21] 89% | residual activity [22] 100% | residual activity [23] 90% | residual activity [24] 100% | residual activity [25] 61% | residual activity [26] 82% | residual activity [27] 89% | residual activity [28] 90% | residual activity [29] 100% | residual activity [30] 74% | inhibition [31] 2.18% | residual activity [32] 100% | residual activity [33] 61% | residual activity [34] 77% | residual activity [35] 100% | inhibition [36] -2.23% | residual activity [37] 63% | residual activity [38] 100% | residual activity [39] 100% | inhibition [40] 5.7% | residual activity [41] 96% | residual activity [42] 100% | residual activity [43] 100% | residual activity [44] 100%
